Reference: patent US12110276B2 (Genentech, Inc., priority 2021, dated 2024)
Read-outs that look alike come from different tables or passages of the source.

What was measured:
TEAD4 = TEAD4 (Homo sapiens (Human), UniProt Q15561); test: TR-FRET lipid pocket probe competition assay (Lipid HTRF), TEAD4; assay type: binding;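 note: His-tagged TEAD4 with biotinylated lipid-pocket probe, read by Europium anti-His and XL665 streptavidin, where probe displacement lowers the TR-FRET signal, IC50 from a four-parameter fit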
Sequence of TEAD4 (Q15561 whole entry, species assumed): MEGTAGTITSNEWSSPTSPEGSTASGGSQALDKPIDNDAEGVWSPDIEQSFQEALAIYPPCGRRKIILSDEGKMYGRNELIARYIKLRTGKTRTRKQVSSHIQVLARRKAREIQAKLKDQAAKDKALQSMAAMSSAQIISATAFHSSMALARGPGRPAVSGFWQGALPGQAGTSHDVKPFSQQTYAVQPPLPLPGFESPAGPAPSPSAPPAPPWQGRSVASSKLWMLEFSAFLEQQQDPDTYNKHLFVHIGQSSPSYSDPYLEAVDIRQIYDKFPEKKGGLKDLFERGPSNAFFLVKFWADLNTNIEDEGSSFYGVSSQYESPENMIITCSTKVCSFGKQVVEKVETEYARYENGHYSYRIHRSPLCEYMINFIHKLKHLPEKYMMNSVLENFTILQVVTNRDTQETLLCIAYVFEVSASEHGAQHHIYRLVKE

TEAD3 = TEAD3 (Homo sapiens (Human), UniProt Q99594); test: TR-FRET lipid pocket probe competition assay (Lipid HTRF), TEAD3; assay type: binding
Sequence of TEAD3 (Q99594 whole entry, species assumed): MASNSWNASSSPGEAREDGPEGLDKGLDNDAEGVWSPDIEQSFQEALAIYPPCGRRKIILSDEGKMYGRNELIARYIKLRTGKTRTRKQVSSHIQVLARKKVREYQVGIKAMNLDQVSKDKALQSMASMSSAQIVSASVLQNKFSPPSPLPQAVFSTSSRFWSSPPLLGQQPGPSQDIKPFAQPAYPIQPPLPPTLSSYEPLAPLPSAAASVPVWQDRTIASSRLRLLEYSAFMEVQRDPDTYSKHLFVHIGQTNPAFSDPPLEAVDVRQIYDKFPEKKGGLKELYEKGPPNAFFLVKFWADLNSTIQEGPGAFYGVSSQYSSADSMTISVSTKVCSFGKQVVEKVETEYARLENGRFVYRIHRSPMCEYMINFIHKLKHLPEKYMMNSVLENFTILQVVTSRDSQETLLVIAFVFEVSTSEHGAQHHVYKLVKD

TEAD1 = TEAD1 (Homo sapiens (Human), UniProt P28347); test: TR-FRET lipid pocket probe competition assay (Lipid HTRF), TEAD1; assay type: binding;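 note: His-tagged TEAD1 with biotinylated probe, detected via Europium anti-His and XL665 streptavidin, probe displacement lowers TR-FRET signal, IC50 from four-parameter nonlinear fit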
Sequence of TEAD1 (P28347 whole entry, species assumed): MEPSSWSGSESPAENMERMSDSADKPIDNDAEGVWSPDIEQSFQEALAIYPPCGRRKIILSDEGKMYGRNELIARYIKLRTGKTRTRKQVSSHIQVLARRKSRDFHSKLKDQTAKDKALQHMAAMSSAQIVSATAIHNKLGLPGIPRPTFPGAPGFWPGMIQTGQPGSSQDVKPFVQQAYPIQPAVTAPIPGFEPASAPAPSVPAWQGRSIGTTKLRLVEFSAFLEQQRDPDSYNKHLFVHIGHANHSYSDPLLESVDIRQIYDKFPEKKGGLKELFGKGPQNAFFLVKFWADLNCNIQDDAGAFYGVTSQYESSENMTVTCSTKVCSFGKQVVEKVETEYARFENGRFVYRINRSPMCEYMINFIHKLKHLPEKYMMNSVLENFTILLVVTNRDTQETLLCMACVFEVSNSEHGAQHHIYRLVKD

TEAD2 [1] = target: T1, TEAD2 (Homo sapiens (Human), UniProt Q15562); test: biochemical;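 note: TR-FRET competition assay with His-tagged TEAD protein and a biotinylated lipid pocket probe, compound pre-incubated 30 min or 4 h at room temperature, displacement lowers signal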
T1 sequence (Q15562 whole entry, species assumed): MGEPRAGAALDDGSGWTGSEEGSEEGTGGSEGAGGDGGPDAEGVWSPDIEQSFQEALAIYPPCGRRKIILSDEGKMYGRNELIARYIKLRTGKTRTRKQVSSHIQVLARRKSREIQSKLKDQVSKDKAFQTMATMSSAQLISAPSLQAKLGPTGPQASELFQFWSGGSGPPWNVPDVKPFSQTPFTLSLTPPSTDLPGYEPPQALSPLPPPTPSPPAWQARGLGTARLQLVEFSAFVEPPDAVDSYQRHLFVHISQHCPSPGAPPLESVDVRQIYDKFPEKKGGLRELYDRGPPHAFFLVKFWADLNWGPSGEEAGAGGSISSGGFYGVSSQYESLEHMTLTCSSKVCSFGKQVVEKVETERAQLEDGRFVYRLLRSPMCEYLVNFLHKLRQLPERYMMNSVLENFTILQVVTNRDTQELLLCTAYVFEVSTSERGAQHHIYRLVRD
Procedure: (§1) His-tagged TEAD proteins are pre-incubated with TEAD project compounds for 30 minutes or 4 hours at room temperature. Biotinylated lipid pocket probes are then added to the TEAD/Compound mixture and incubated for 60 minutes at room temperature. The lipid pocket probe competes with the test compound for the TEAD lipid pocket until equilibrium is reached. After 60 minutes, Europium labelled anti-His (Perkin Elmer #AD0110) and XL665 labelled streptavidin (CIS Bio 610SAXAC) are added to the TEAD/test compound/lipid pocket mixture and incubated for 30 minutes or 4 hours. TR-FRET values are then measured using an EnVision multi-label plate reader (Perkin Elmer Cat #2104-0010A.) If the lipid pocket probe binds to TEAD as expected, a TR-FRET signal results from the proximity of anti-His Eu and XL665. If a TEAD lipid pocket binder such as binds and displaces the lipid pocket probe, the disruption of the TEAD:probe interaction results in a decrease in TR-FRET signal. The potency of compounds as TEAD lipid pocket binders is determined by IC50 value generated using a non-linear 4 parameter curve fit.

TEAD2 [2] = target: T1, TEAD2
Procedure: as §1

[3] = 4 hours pre-incubation, read-out: Lipid HTRF TEAD4 IC50
[4] = 4 hours pre-incubation, read-out: Lipid HTRF TEAD3 IC50
[5] = 4 hours pre-incubation, read-out: Lipid HTRF TEAD1 IC50

Row | Structure (SMILES) | IC50 (TEAD4; [3]) [nM] | IC50 (TEAD3; [4]) [nM] | IC50 (TEAD1; [5]) [nM] | IC50 (TEAD2 [1]) [nM] | IC50 (TEAD4) [nM] | IC50 (TEAD3) [nM] | IC50 (TEAD1) [nM] | IC50 (TEAD2 [2]) [nM]
1 | C=CC(=O)NCc1nn(-c2ccc(OC(F)(F)F)cc2)c2nccc(N3CCOCC3)c12 [Compound 77, N-((4-morpholino-1-(4-(trifluoromethoxy)phenyl)-1H-pyrazolo[3,4-b]pyridin-3-yl)methyl)acrylamide] | 65 | 5700 | 93 | 40 | – | – | – | –
2 | C=CC(=O)NCc1nn(-c2cccc(OC(F)(F)F)c2)c2nccc([C@H](O)CO)c12 (stereo in doubt) [Compound 73, N-((4-(1,2-dihydroxyethyl)-1-(3-(trifluoromethoxy)phenyl)-1H-pyrazolo[3,4-b]pyridin-3-yl)methyl)acrylamide] | 33 | 290 | 870 | 430 | – | – | – | –
3 | C=CC(=O)NCc1nn(-c2ccc(C(F)(F)F)cc2)c2nccc([C@H](O)CO)c12 (stereo in doubt) [Compound 100, N-((4-(1,2-dihydroxyethyl)-1-(4-(trifluoromethyl)phenyl)-1H-pyrazolo[3,4-b]pyridin-3-yl)methyl)acrylamide] | 100 | 720 | 480 | 520 | – | – | – | –
4 | C=CC(=O)NCc1nn(-c2ccc(C(F)(F)F)cc2)c2nccc([C@@H](O)CO)c12 (stereo in doubt) [Compound 88, N-((4-(1,2-dihydroxyethyl)-1-(4-(trifluoromethyl)phenyl)-1H-pyrazolo[3,4-b]pyridin-3-yl)methyl)acrylamide] | 43 | 2100 | 80 | 150 | – | – | – | –
5 | [2H]C([2H])=C([2H])C(=O)NCc1nn(-c2ccc(OC(F)(F)F)cc2)c2nccc([C@H](O)CO)c12 [Compound 154, (S)-N-((4-(1,2-Dihydroxyethyl)-1-(4-(trifluoromethoxy)phenyl)-1H-pyrazolo[3,4-b]pyridin-3-yl)methyl)acrylamide-2,3,3-d3] | – | – | – | 36 | 22 | 1200 | 44 | –
6 | C=CC(=O)NCc1nn(-c2ccc(S(F)(F)(F)(F)F)cc2)c2nccc([C@@H](O)CO)c12 (stereo in doubt) [Compound 27, N-((4-(1,2-dihydroxyethyl)-1-(4-(pentafluoro-λ^6-sulfanyl)phenyl)-1H-pyrazolo[3,4-b]pyridin-3-yl)methyl)acrylamide] | 71 | 1100 | 290 | 270 | – | – | – | –
7 | C=CC(=O)NCc1nn(-c2cccc(OC(F)(F)F)c2)c2nccc([C@@H](O)CO)c12 (stereo in doubt) [Compound 131, N-((4-(1,2-dihydroxyethyl)-1-(3-(trifluoromethoxy)phenyl)-1H-pyrazolo[3,4-b]pyridin-3-yl)methyl)acrylamide] | 30 | 2900 | 290 | 89 | – | – | – | –
8 | C=C(F)C(=O)N1CC(c2nn(-c3ccc(OC(F)(F)F)cc3)c3nccc(N4CC(O)(CO)C4)c23)C1 [Compound 75, 2-Fluoro-1-(3-(4-(3-hydroxy-3-(hydroxymethyl)azetidin-1-yl)-1-(4-(trifluoromethoxy)phenyl)-1H-pyrazolo[3,4-b]pyridin-3-yl)azetidin-1-yl)prop-2-en-1-one] | 5.2 | 1100 | 45 | – | – | – | – | 19
9 | COC/C=C/C(=O)N1CC(c2nn(-c3ccc(OC(F)(F)F)cc3)c3nccc(CO)c23)C1 [Compound 40, (E)-1-(3-(4-(Hydroxymethyl)-1-(4-(trifluoromethoxy)phenyl)-1H-pyrazolo[3,4-b]pyridin-3-yl)azetidin-1-yl)-4-methoxybut-2-en-1-one] | 13 | 66 | 16 | – | – | – | – | 48
10 | C=CC(=O)NCc1nn(-c2ccc(S(F)(F)(F)(F)F)cc2)c2cccc([C@@H](O)CO)c12 (single isomer, unassigned) [Compound 10, N-((4-(1,2-dihydroxyethyl)-1-(4-(pentafluoro-λ^6-sulfanyl)phenyl)-1H-indazol-3-yl)methyl)acrylamide] | 49 | 560 | 100 | – | – | – | – | 180
11 | C=CC(=O)NCc1nn(-c2ccc(S(F)(F)(F)(F)F)cc2)c2nccc(CO)c12 [Compound 87, N-((4-(Hydroxymethyl)-1-(4-(pentafluoro-λ^6-sulfanyl)phenyl)-1H-pyrazolo[3,4-b]pyridin-3-yl)methyl)acrylamide] | 33 | 520 | 23 | – | – | – | – | 190
12 | C=CC(=O)NCc1nn(-c2ccc(OC(F)(F)F)cc2)c2nccc(-c3cnn(CC(N)=O)c3)c12 [Compound 165, N-((4-(1-(2-amino-2-oxoethyl)-1H-pyrazol-4-yl)-1-(4-(trifluoromethoxy)phenyl)-1H-pyrazolo[3,4-b]pyridin-3-yl)methyl)acrylamide] | 100 | 50000 | 120 | – | – | – | – | 40
13 | [2H]C([2H])=C([2H])C(=O)NCc1nn(-c2ccc(OC(F)(F)F)cc2)c2nccc(CO)c12 [Compound 111, 2,3,3-Trideuterio-N-[[4-(hydroxymethyl)-1-[4-(trifluoromethoxy)phenyl]pyrazolo[3,4-b]pyridin-3-yl]methyl]prop-2-enamide] | 28 | 290 | 16 | 62 | – | – | – | –
14 | C=CC(=O)NCc1nn(-c2ccc(S(F)(F)(F)(F)F)cc2)c2nccc([C@H](O)CO)c12 (stereo in doubt) [Compound 23, N-((4-(1,2-dihydroxyethyl)-1-(4-(pentafluoro-λ^6-sulfanyl)phenyl)-1H-pyrazolo[3,4-b]pyridin-3-yl)methyl)acrylamide] | 17 | 890 | 43 | 66 | – | – | – | –
15 | CC#CC(=O)N1CC(c2nn(-c3ccc(OC(F)(F)F)cc3)c3nccc([C@@H](O)CO)c23)C1 [Compound 71, (R)-1-(3-(4-(1,2-dihydroxyethyl)-1-(4-(trifluoromethoxy)phenyl)-1H-pyrazolo[3,4-b]pyridin-3-yl)azetidin-1-yl)but-2-yn-1-one] | 16 | 43 | 32 | – | – | – | – | 5.3
16 | C=C(F)C(=O)N1CC(c2nn(-c3ccc(OC(F)(F)F)cc3)c3nccc(-c4cnn(C5COC5)c4)c23)C1 [Compound 175, 2-fluoro-1-(3-(4-(1-(oxetan-3-yl)-1H-pyrazol-4-yl)-1-(4-(trifluoromethoxy)phenyl)-1H-pyrazolo[3,4-b]pyridin-3-yl)azetidin-1-yl)prop-2-en-1-one] | 45 | 50000 | 62 | – | – | – | – | 420
17 | C=C(F)C(=O)N1CC(c2nn(-c3ccc(OC(F)(F)F)cc3)c3nccc(-c4cn[nH]c4)c23)C1 [Compound 182, 1-(3-(4-(1H-pyrazol-4-yl)-1-(4-(trifluoromethoxy)phenyl)-1H-pyrazolo[3,4-b]pyridin-3-yl)azetidin-1-yl)-2-fluoroprop-2-en-1-one] | 13 | 440 | 25 | – | – | – | – | 130
18 | C=C(F)C(=O)N1CC(c2nn(-c3ccc(OC(F)(F)F)cc3)c3nccc(-c4cnn(CCN(C)C)c4)c23)C1 [Compound 45, 1-(3-(4-(1-(2-(Dimethylamino)ethyl)-1H-pyrazol-4-yl)-1-(4-(trifluoromethoxy)phenyl)-1H-pyrazolo[3,4-b]pyridin-3-yl)azetidin-1-yl)-2-fluoroprop-2-en-1-one] | 340 | 50000 | 250 | – | – | – | – | 1500
19 | O=C(/C=C/CO)N1CC(c2nn(-c3ccc(OC(F)(F)F)cc3)c3nccc(N4CC(O)C4)c23)C1 [Compound 70, (E)-4-Hydroxy-1-(3-(4-(3-hydroxyazetidin-1-yl)-1-(4-(trifluoromethoxy)phenyl)-1H-pyrazolo[3,4-b]pyridin-3-yl)azetidin-1-yl)but-2-en-1-one] | 3.6 | 140 | 17 | – | – | – | – | 37
20 | C=C(F)C(=O)N1CC(c2nn(-c3ccc(OC(F)(F)F)cc3)c3nccc(N4CC([C@@H](O)CO)C4)c23)C1 [Compound 58, (R)-1-(3-(4-(3-(1,2-Dihydroxyethyl)azetidin-1-yl)-1-(4-(trifluoromethoxy)phenyl)-1H-pyrazolo[3,4-b]pyridin-3-yl)azetidin-1-yl)-2-fluoroprop-2-en-1-one] | 9.6 | 50000 | 38 | – | – | – | – | 70
21 | C=CC(=O)NCc1nn(-c2ccc(OC(F)(F)F)cc2)c2nccc(-c3cnn(CCN(C)C)c3)c12 [Compound 172, N-[[4-[1-[2-(dimethylamino)ethyl]pyrazol-4-yl]-1-[4-(trifluoromethoxy)phenyl]pyrazolo[3,4-b]pyridin-3-yl]methyl]prop-2-enamide] | 150 | 19000 | 470 | – | – | – | – | 810
22 | C=CC(=O)NCc1nn(-c2ccc(OC(F)(F)F)cc2)c2nccc(-c3cnn(C(C)C)c3)c12 [Compound 170, N-[[4-(1-isopropylpyrazol-4-yl)-1-[4-(trifluoromethoxy)phenyl]pyrazolo[3,4-b]pyridin-3-yl]methyl]prop-2-enamide] | 92.8 | 26600 | 120 | – | – | – | – | 355
23 | C=CC(=O)NCc1nn(-c2ccc(OC(F)(F)F)cc2)c2nccc([C@H]3C[C@H](O)C3)c12 [Compound 56, N-((4-(trans-3-hydroxycyclobutyl)-1-(4-(trifluoromethoxy)phenyl)-1H-pyrazolo[3,4-b]pyridin-3-yl)methyl)acrylamide] | 11 | 50000 | 39 | – | – | – | – | 85
